Structures are written as SMILES.

This assay deals with T1, MMP-9 (crude enzyme solution derived from a mouse skin) (Mus musculus, UniProt P41245).
T1 construct: crude enzyme solution derived from a mouse skin; from tissue; host or cells: mouse skin
Nature of the assay: Gelatinase group MMPs inhibition test (gelatin zymography). The note with it: sample solution 100 μM; gel incubated overnight; size of MMP-9 band compared with control solution. More on the design: key: ⊚: The band disappeared.; ◯: The band was slightly confirmed.; Δ: The band became narrower than control.; X: Unchanged. Format: biochemical. As for the experimental part:
A test material was dissolved in dimethyl sulfoxide (DMSO) to the concentration of 10 mM, to prepare a stock solution. The stock solution was diluted with a measuring buffer (0.05M tris at pH 7.5 containing 0.2M NaCl and 5 mM CaCl2) to adjust the concentration to 100 μM, which was used as a sample solution. As a control solution, a solution containing no test material was similarly prepared.
As a gelatinase group enzyme, MMP-9 (crude enzyme solution derived from a mouse skin) was used. The test was performed according to a gelatin zymography method (“Bio-antioxidant provitamin C”, Nobuhiko Miwa ed., p. 76, 1999, Fragrance Journal, Tokyo).
That is, a gel containing gelatin in which a predetermined amount of the crude enzyme solution had been subjected to electrophoresis in advance, was incubated overnight with a sample solution or a control solution. After the gel was stained, the appearing band corresponding to MMP-9 was evaluated by a decrease when its size compared with that of a band of control solution. Evaluation criteria was as follows: • ⊚: The band disappeared. • ◯: The band was slightly confirmed. • Δ: The band became narrower than control. • X: Unchanged.

T1 sequence (P41245 108-730): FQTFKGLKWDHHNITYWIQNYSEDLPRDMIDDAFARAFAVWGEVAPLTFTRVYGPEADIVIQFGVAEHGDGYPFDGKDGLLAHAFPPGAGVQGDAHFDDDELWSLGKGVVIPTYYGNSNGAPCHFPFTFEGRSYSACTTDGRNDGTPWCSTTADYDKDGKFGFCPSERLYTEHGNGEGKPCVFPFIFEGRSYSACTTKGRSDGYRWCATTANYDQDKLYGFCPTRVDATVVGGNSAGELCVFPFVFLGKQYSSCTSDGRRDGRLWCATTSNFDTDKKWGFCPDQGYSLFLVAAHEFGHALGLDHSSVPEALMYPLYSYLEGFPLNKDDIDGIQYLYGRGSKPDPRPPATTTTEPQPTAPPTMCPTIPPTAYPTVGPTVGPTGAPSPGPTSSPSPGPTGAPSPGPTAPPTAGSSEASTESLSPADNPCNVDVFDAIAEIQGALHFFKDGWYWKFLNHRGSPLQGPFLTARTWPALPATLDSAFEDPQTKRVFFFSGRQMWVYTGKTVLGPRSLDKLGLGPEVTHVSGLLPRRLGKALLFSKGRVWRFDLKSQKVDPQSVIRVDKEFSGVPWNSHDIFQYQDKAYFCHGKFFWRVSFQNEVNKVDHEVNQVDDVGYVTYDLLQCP

As to `COc1ccc(S(=O)(=O)N2C3CCC(C3)C2C(=O)NO)cc1` (centres unmarked) [Compound 1, N-Hydroxy-2-[(4-methoxyphenyl)sulfonyl]-2-azabicyclo[2.2.1]heptane-3-carboxamide], the “MMPs Inhibition” value was “◯~⊚”.

On to `COc1ccc(S(=O)(=O)N2[C@H]3CC[C@H](C3)[C@@H]2C(=O)NO)cc1` [Compound 3, (1S, 3R, 4R)—N-Hydroxy-2-[(4-methoxyphenyl)sulfonyl]-2-azabicyclo[2.2.1]heptane-3-carboxamide], for which the “MMPs Inhibition” value was “◯~⊚”.

For `COc1ccc(S(=O)(=O)N2C3CCC(CC3)[C@@H]2C(=O)NO)cc1` [Compound 7, (3R)—N-Hydroxy-2-[(4-methoxyphenyl)sulfonyl]-2-azabicyclo[2.2.2]octane-3-carboxamide], the “MMPs Inhibition” value is “◯~⊚”.

Turning to `O=C(NO)[C@H]1[C@@H]2CC[C@@H](C2)N1S(=O)(=O)c1ccccc1` [Compound 8, (1S, 3R, 4R)—N-Hydroxy-2-(phenylsulfonyl)-2-azabicyclo[2.2.1]heptane-3-carboxamide], the “MMPs Inhibition” value was “◯”.

As to `O=C(NO)[C@H]1[C@@H]2CC[C@@H](C2)N1S(=O)(=O)c1ccc(Cl)cc1` [Compound 9, (1S, 3R, 4R)-2-[(4-Chlorophenyl)sulfonyl]-N-hydroxy-2-azabicyclo[2.2.1]heptane-3-carboxamide], the “MMPs Inhibition” value was “◯”.

For the molecule `CCCCOc1ccc(S(=O)(=O)N2[C@H]3CCC(C3)[C@@H]2C(=O)NO)cc1` [Compound 12, (1S, 3R, 4R)-2-[4-(Butoxyphenyl)sulfonyl]-N-hydroxy-2-azabicyclo[2.2.1]heptane-3-carboxamide], the “MMPs Inhibition” value is recorded as “⊚”.

`O=C(NO)[C@H]1[C@@H]2CC[C@@H](C2)N1S(=O)(=O)c1ccc(F)cc1` [Compound 13, (1S, 3R, 4R)-2-[(4-Fluorophenyl)sulfonyl]-N-hydroxy-2-azabicyclo[2.2.1]heptane-3-carboxamide]: the “MMPs Inhibition” value was “◯”.

For the molecule `COc1ccc(S(=O)(=O)N2[C@@H]3CC(C(C)(C)C)[C@H](C3)[C@@H]2C(=O)NO)cc1` (stereo partly drawn) [Compound 14, 5-(tert-Butyl)-(1R, 3R, 4S)—N-hydroxy-2-[(4-methoxyphenyl)sulfonyl]-2-azabicyclo[2.2.1]heptane-3-carboxamide], the “MMPs Inhibition” value was “◯”.
